Measured values from PubChem BioAssay AID248 (DTP/NCI, 2004).
Several values for one entry are separate records, joined by “and”; a condition that tells them apart may be missing. Equal entries are not always repeated. Toxic doses and inconclusive results are not listed.

Tested on: L1210 leukemia ip in BDF1 mice, survival T/C
Test: NCI In Vivo Anticancer Drug Screen. Data for tumor model L1210 Leukemia (intraperitoneal) in B6D2F1 (BDF1) mice
Details: endpoint: mean survival time, higher = longer survival
How it was run: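 Tumor cells were implanted, animals were treated, and survival was followed. The result divides the treated measurement by the vehicle-control measurement.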

[1] = dose: 25.0 mg/kg/injection, schedule: Q01DX009 (ip), vehicle: Klucel (hydroxypropylcellulose) (HPC)
[2] = dose: 50.0 mg/kg/injection, schedule: Q01DX009 (ip), vehicle: Klucel (hydroxypropylcellulose) (HPC)
[3] = dose: 100.0 mg/kg/injection, schedule: Q01DX009 (ip), vehicle: Klucel (hydroxypropylcellulose) (HPC)
[4] = dose: 100.0 mg/kg/injection, schedule: Q04DX003 (ip), vehicle: Klucel (hydroxypropylcellulose) (HPC)
[5] = dose: 200.0 mg/kg/injection, schedule: Q04DX003 (ip), vehicle: Klucel (hydroxypropylcellulose) (HPC)
[6] = dose: 400.0 mg/kg/injection, schedule: Q01DX009 (ip), vehicle: Klucel (hydroxypropylcellulose) (HPC)
[7] = dose: 400.0 mg/kg/injection, schedule: Q04DX003 (ip), vehicle: Klucel (hydroxypropylcellulose) (HPC)
[8] = dose: 100.0 mg/kg/injection, schedule: Q01DX001 (ip), vehicle: saline
[9] = dose: 100.0 mg/kg/injection, schedule: Q01DX009 (ip), vehicle: saline with Tween-80
[10] = dose: 200.0 mg/kg/injection, schedule: Q01DX001 (ip), vehicle: saline
[11] = dose: 200.0 mg/kg/injection, schedule: Q01DX009 (ip), vehicle: saline with Tween-80
[12] = dose: 400.0 mg/kg/injection, schedule: Q01DX001 (ip), vehicle: saline
[13] = dose: 100.0 mg/kg/injection, schedule: Q01DX001 (ip), vehicle: carboxymethylcellulose (CMC)
[14] = dose: 200.0 mg/kg/injection, schedule: Q01DX001 (ip), vehicle: carboxymethylcellulose (CMC)
[15] = dose: 400.0 mg/kg/injection, schedule: Q01DX001 (ip), vehicle: carboxymethylcellulose (CMC)
[16] = dose: 200.0 mg/kg/injection, schedule: Q01DX009 (ip), vehicle: Klucel (hydroxypropylcellulose) (HPC)

CCCCOc1ccc(C=Nc2ccc(C)cc2)cc1
T/C (dose: 12.5 mg/kg/injection, schedule: Q01DX009 (ip), vehicle: Klucel (hydroxypropylcellulose) (HPC)): 110 % of control
T/C [1]: 109 % of control
T/C [2]: 103 % of control
T/C [3]: 93 % of control
T/C [4]: 97 % of control
T/C [5]: 95 % of control
T/C [6]: 92 % of control
T/C [7]: 107 % of control

O=S(=O)(Cl)c1cccc2cc3ccccc3cc12
T/C [8]: 92 % of control
T/C [9]: 107 % of control
T/C [10]: 100 % of control
T/C [11]: 102 % of control
T/C [12]: 98 % of control
T/C (dose: 400.0 mg/kg/injection, schedule: Q01DX009 (ip), vehicle: saline with Tween-80): 103 % of control

Cc1cc(C)c(OCC2CO2)c(C)c1 (configuration not stated)
T/C [4]: 105 % of control
T/C [5]: 95 % of control
T/C [7]: 89 % of control

CCCCCCCCCCCCOC(=O)OC1CCC2(C)C(=CCC3C2CCC2(C)C(C(C)CCCC(C)C)CCC32)C1 (configuration not stated)
T/C (dose: 100.0 mg/kg/injection, schedule: Q01DX008 (sc), vehicle: olive oil, sesame oil, peanut oil): 111 % of control
T/C (dose: 100.0 mg/kg/injection, schedule: Q04DX003 (sc), vehicle: olive oil, sesame oil, peanut oil): 109 % of control
T/C (dose: 200.0 mg/kg/injection, schedule: Q01DX008 (sc), vehicle: olive oil, sesame oil, peanut oil): 107 % of control
T/C (dose: 200.0 mg/kg/injection, schedule: Q04DX003 (sc), vehicle: olive oil, sesame oil, peanut oil): 100 % of control
T/C (dose: 400.0 mg/kg/injection, schedule: Q01DX008 (sc), vehicle: olive oil, sesame oil, peanut oil): 107 % of control
T/C (dose: 400.0 mg/kg/injection, schedule: Q04DX003 (sc), vehicle: olive oil, sesame oil, peanut oil): 109 % of control

COc1cc2c(c(OC)c1OC)-c1cc3c(cc1[C@@H](OC(C)=O)[C@@H]1COC(=O)[C@H]1C2)OCO3
T/C (dose: 6.22 mg/kg/injection, schedule: Q01DX009 (ip), vehicle: saline + alcohol): 89 % of control
T/C (dose: 9.33 mg/kg/injection, schedule: Q01DX009 (ip), vehicle: saline + alcohol): 94 % of control
T/C (dose: 14.0 mg/kg/injection, schedule: Q01DX009 (ip), vehicle: saline + alcohol): 107 % of control
T/C (dose: 21.0 mg/kg/injection, schedule: Q01DX009 (ip), vehicle: saline + alcohol): 105 % of control

c1ccc(-c2nc(N3CCOCC3)nc3ccccc23)cc1
T/C [9]: 94 % of control
T/C [11]: 90 % of control

O=[N+]([O-])c1cc2c(c([N+](=O)[O-])c1)OCOC2
T/C (dose: 100.0 mg/kg/injection, schedule: Q04DX003 (ip), vehicle: saline): 100 % of control
T/C (dose: 200.0 mg/kg/injection, schedule: Q04DX003 (ip), vehicle: saline): 97 % of control
T/C (dose: 400.0 mg/kg/injection, schedule: Q04DX003 (ip), vehicle: saline): 107 % of control

CCCCCCCCCCCCOP(=S)(S)OCCCCCCCCCCCC (tested in a mixture with another compound)
T/C [1]: 94 % of control
T/C (dose: 25.0 mg/kg/injection, schedule: Q04DX002 (ip), vehicle: Klucel (hydroxypropylcellulose) (HPC)): 87 % of control
T/C [2]: 91 % of control
T/C (dose: 50.0 mg/kg/injection, schedule: Q04DX002 (ip), vehicle: Klucel (hydroxypropylcellulose) (HPC)): 90 % of control
T/C (dose: 100.0 mg/kg/injection, schedule: Q04DX002 (ip), vehicle: Klucel (hydroxypropylcellulose) (HPC)): 99 % of control and 100 % of control

O=C(CCCl)N1CCN(C(=O)CCCl)c2ccccc21
T/C [13]: 103 % of control
T/C [14]: 96 % of control
T/C [15]: 96 % of control

O=C1C2C3CCC(O3)C2C(=O)N1CC#CCCl (configuration not stated)
T/C (dose: 6.25 mg/kg/injection, schedule: Q04DX002 (ip), vehicle: saline with Tween-80): 100 % of control
T/C (dose: 12.5 mg/kg/injection, schedule: Q04DX002 (ip), vehicle: saline with Tween-80): 106 % of control

BrC[P+](c1ccccc1)(c1ccccc1)c1ccccc1
T/C (dose: 3.12 mg/kg/injection, schedule: Q04DX002 (ip), vehicle: saline): 108 % of control
T/C (dose: 6.25 mg/kg/injection, schedule: Q04DX002 (ip), vehicle: saline): 104 % of control
T/C (dose: 12.5 mg/kg/injection, schedule: Q04DX002 (ip), vehicle: saline): 105 % of control and 112 % of control

O=C1C=CC(=NCl)C=C1
T/C (dose: 1.25 mg/kg/injection, schedule: Q01DX015 (ip), vehicle: carboxymethylcellulose (CMC)): 92 % of control
T/C (dose: 2.5 mg/kg/injection, schedule: Q01DX015 (ip), vehicle: carboxymethylcellulose (CMC)): 91 % of control
T/C (dose: 5.0 mg/kg/injection, schedule: Q01DX001 (ip), vehicle: carboxymethylcellulose (CMC)): 114 % of control
T/C (dose: 5.0 mg/kg/injection, schedule: Q01DX015 (ip), vehicle: carboxymethylcellulose (CMC)): 95 % of control
T/C (dose: 10.0 mg/kg/injection, schedule: Q01DX001 (ip), vehicle: carboxymethylcellulose (CMC)): 111 % of control

COc1cc(OC)c2c(C)c(C#N)oc2c1
T/C [4]: 97 % of control
T/C [5]: 97 % of control
T/C [7]: 98 % of control

CCCOc1ccc(C)cc1
T/C [8]: 93 % of control
T/C [10]: 108 % of control

O=C(O)C1(Nc2ccc(-c3ccc(Br)cc3)cc2)CCCC1
T/C (dose: 50.0 mg/kg/injection, schedule: Q01DX001 (ip), vehicle: carboxymethylcellulose (CMC)): 90 % of control
T/C [13]: 90 % of control
T/C [14]: 90 % of control
T/C [15]: 90 % of control

O=C(S)CN1C(=O)c2ccccc2C1=O
T/C [13]: 91 % of control
T/C [14]: 93 % of control
T/C [15]: 102 % of control

OCC(c1ccccc1)C(O)Cc1ccccc1 (configuration not stated)
T/C [13]: 97 % of control
T/C [14]: 95 % of control
T/C [15]: 101 % of control

Cc1ncc(C(O)c2ccccc2)n1Cc1ccccc1 (configuration not stated)
T/C (dose: 100.0 mg/kg/injection, schedule: Q01DX001 (ip), vehicle: Klucel (hydroxypropylcellulose) (HPC)): 94 % of control
T/C [3]: 93 % of control and 107 % of control
T/C [4]: 106 % of control
T/C (dose: 200.0 mg/kg/injection, schedule: Q01DX001 (ip), vehicle: Klucel (hydroxypropylcellulose) (HPC)): 100 % of control
T/C [16]: 93 % of control and 103 % of control
T/C [5]: 97 % of control
T/C (dose: 400.0 mg/kg/injection, schedule: Q01DX001 (ip), vehicle: Klucel (hydroxypropylcellulose) (HPC)): 98 % of control
T/C [6]: 104 % of control and 89 % of control
T/C [7]: 99 % of control

O=C(Nc1cccc([N+](=O)[O-])c1)Nc1ccccc1Cl
T/C (dose: 100.0 mg/kg/injection, schedule: Q04DX002 (ip), vehicle: saline + alcohol): 88 % of control
T/C (dose: 200.0 mg/kg/injection, schedule: Q04DX002 (ip), vehicle: saline + alcohol): 88 % of control
T/C (dose: 400.0 mg/kg/injection, schedule: Q04DX002 (ip), vehicle: saline + alcohol): 88 % of control

CC1CC(NC(=S)NC(=O)c2ccc(Cl)cc2Cl)CC(C)(C)C1 (configuration not stated)
T/C [3]: 91 % of control
T/C [16]: 96 % of control
T/C [6]: 91 % of control

NNC(=O)c1ccccc1[N+](=O)[O-]
T/C [1]: 95 % of control
T/C [2]: 94 % of control
T/C (dose: 50.0 mg/kg/injection, schedule: Q04DX003 (ip), vehicle: Klucel (hydroxypropylcellulose) (HPC)): 100 % of control
T/C [3]: 101 % of control
T/C [4]: 100 % of control

Cc1cc(NC(=O)Nc2ccc(C3=NCCN3)cc2)ccc1NC(=O)Nc1ccc(C2=NCCN2)cc1
T/C (dose: 62.0 mg/kg/injection, schedule: Q01DX Z (ip), vehicle: carboxymethylcellulose (CMC)): 124 % of control
T/C (dose: 250.0 mg/kg/injection, schedule: Q01DX Z (ip), vehicle: carboxymethylcellulose (CMC)): 151 % of control

Cc1ccc(S(=O)(=O)Nc2ccccc2C(=O)c2ccc(C)c(C)c2)cc1
T/C [13]: 100 % of control

O=c1cc(CCc2ccccc2)cc[nH]1
T/C [8]: 97 % of control
T/C [10]: 103 % of control
T/C [12]: 111 % of control

CCP(=S)(CC)CCCCCP(=S)(CC)CC
T/C (dose: 100.0 mg/kg/injection, schedule: Q04DX003 (ip), vehicle: saline with Tween-80): 92 % of control
T/C (dose: 200.0 mg/kg/injection, schedule: Q04DX003 (ip), vehicle: saline with Tween-80): 95 % of control
T/C (dose: 400.0 mg/kg/injection, schedule: Q04DX003 (ip), vehicle: saline with Tween-80): 87 % of control

CC12C=CC3(CCC4C(C)(C)C(OC5OC(CO)C(O)C(O)C5O)C(=O)CC4(C)C3CC1=O)C2 (configuration not stated)
T/C [8]: 100 % of control
T/C [10]: 109 % of control
T/C [12]: 97 % of control
